Experimental data as given in patent publication US7906486B2, “Method of treating or preventing tissue deterioration, injury or damage due to disease of mucosa” (SciClone Pharmaceuticals, Inc., priority 2007, dated 2011).

Experiments:
[1] = test system: oral mucositis induced by fractionated radiation (eight doses of 7.5 Gy, left buccal cheek pouch); experiment: Oral mucositis induced by fractionated radiation in hamsters, mucositis scoring (Example 3, SCI-03); format: in vivo, Syrian Golden Hamsters; conditions: for % Days >=3 / Days <3 / Days >=3 / Chi Sq v control: 100 ug/kg, qd; for Days >=3: animal days with mucositis score of three or more; for Chi Sq v control: days with score >=3
From the text: The fractionated radiation model in hamsters, developed by the Principal Investigator, has proven to be an accurate, efficient and cost-effective technique to provide a preliminary evaluation of anti-mucositis compounds. In this model, hamsters receive 8 doses of 7.5 Gy to the left cheek pouch on days 0, 1, 2, 3, […], rather than the single dose of 40 Gy on day 0 that is used in acute radiation studies. The rationale for using this scheduling for the radiation is that it more closely resembles the clinical courses of radiotherapy given to cancer patients. The course of mucositis in this model is well defined and results in peak mucositis scores approximately 14-16 days following radiation. Mortality (generally from the side effects of anesthesia) in the fractionated radiation model is slightly higher than that seen in the acute radiation model and group sizes are increased (to 10 per group) to allow for this.
(§1) Forty (40) male Syrian Golden Hamsters were given eight doses of radiation of 7.5 Gy each directed to their left buccal cheek pouch on days 0, 1, 2, 3, 6, 7, 8 and 9. This was accomplished by anesthetizing the animals and everting the left buccal pouch, while protecting the rest of the animal's bodies with a lead shield. Test materials were given by sub-cutaneous injection once daily as detailed in Table 9. Mucositis was evaluated clinically starting on day 7, and continuing on alternate days until day 35. Test articles were given as outlined Table 9, Groups 1 and 2 were dosed from Day −1 to Day 29, Group 3 was dosed on the days of radiation only, Group 4 was dosed on the days between Day −15 and Day 29 on which no radiation is given (Day −1, Day 4, Day 5 and Day 10 to Day 29).
The effect on mucositis of each drug treatment compared to placebo was assessed according to the following parameters:
On each evaluation day, the number of animals with a blinded mucositis score of ≧3 in each drug treatment group was compared to the control group. Differences were compared on a cumulative basis and statistical significance was determined by chi-square analysis. Efficacy, in this analysis, is defined by a significant reduction in the number of days that a group of animals had ulcerations (scores ≧3) when compared to the control group.
For each evaluation day the scores of the control group were compared to those of the treated groups using non-parametric rank sum analysis. Treatment success was considered as a statistically significant lowering of scores in the treated group on 2 or more days from day 6 to day 28.
as §1, with “daily at 8:00 am” for “daily”, “9. […]” for “9. Mucositis was evaluated clinically starting on day 7, and continuing on alternate days until day 35.”, “2 was” for “2 were”, “radiation only (days 0-3 and days 6-10),” for “radiation only,”, “Day −1” for “Day −15”, “Day 4 to” for “Day 4,”
Radiation was generated with a Philips 160 kVp (kilovolt potential) (18.75-ma) X-ray source at a focal distance of 30 cm, with a 3.0 mm hardened Al filtration system. Irradiation was targeted to the left buccal pouch mucosa at a rate of 3.32 Gy/minute. […] Using this calibration, the energy received by each animal at each radiation dose was approximately 64.5 nC (nanoCoulombs) at each time point. Prior to irradiation, animals were anesthetized with an intraperitoneal injection of ketamine (160 mg/kg) and xylazine (8 mg/kg). The left buccal pouch was everted, fixed and isolated using a lead shield.
The mucositis score, weight change and survival were measured throughout the study as described above. […]

[2] = Weights and survival (Example 2, SCI-02); format: in vivo, Syrian Golden Hamsters
Method: All animals were weighed daily and their survival recorded, in order to assess possible differences in animal weight among treatment groups as an indication for mucositis severity and/or possible toxicity resulting from the treatments.
The mean daily percent weight change data was evaluated. The saline treated control hamsters gained an average of 44.1% of their starting weight during the study. Hamsters in the group receiving SCV-07 100 μg/kg once daily on days −1 to 20 gained an average of 49.9% of their starting weight during the study. Hamsters in the group receiving SCV-07 at 100 μg/kg twice daily on days −1 to 20 gained an average of 61.3% of their starting weight during the study. Hamsters in the group receiving SCV-07 at 1 mg/kg once daily on days −1 to 20 gained an average of 63.4% of their starting weight during the study. Hamsters in the group receiving SCV-07 at 1 mg/kg twice daily on days −1 to 20 gained an average of 69.1% of their starting weight during the study. The significance of these differences was evaluated by calculating the area-under-the-curve (AUC) for the weight gain of each animal, and then comparing the different treatment groups using a One-Way ANOVA test.

[3] = 100 ug/kg from day -1 to day 29
[4] = 100 ug/kg on the days of radiation (0-3 and 6-9)

## N[C@H](CCC(=O)N[C@@H](Cc1c[nH]c2ccccc12)C(=O)O)C(=O)O [SCV-07, γ-D-glutamyl-L-tryptophan]
[1]; [3]
  day of peak mean mucositis score: 19
  peak mean mucositis score: 3.3
[1]; 100 ug/kg on days 1, 4, 5 and 10 through 29
  peak mean mucositis score: 2.9
[1]; [4]
  day of peak mean mucositis score: 17
  peak mean mucositis score: 3.0
[1]; sc Days 0 to 3 and 6 to 9
  % Days >=3: 24%
  Days <3: 228
  Days >=3: 72
  Chi Sq v control: 0.3160
[1]; sc Days -1, 4, 5 10 to 29
  % Days >=3: 30.7%
  Days <3: 208
  Days >=3: 92
  Chi Sq v control: 0.2300
[1]; sc Days -1 to 29
  % Days >=3: 32.7%
  Days <3: 202
  Days >=3: 98
  Chi Sq v control: 0.575
[2]; 100 ug/kg once daily on days -1 to 20
  average weight gain, % of starting weight during the study: 49.9%
[2]; 100 ug/kg twice daily
  P, weight gain greater than saline controls: 0.014
[2]; 100 ug/kg twice daily on days -1 to 20
  average weight gain, % of starting weight during the study: 61.3%
[2]; 1 mg/kg once daily
  P, weight gain greater than saline controls: 0.009
[2]; 1 mg/kg once daily on days -1 to 20
  average weight gain, % of starting weight during the study: 63.4%
[2]; 1 mg/kg twice daily
  P, weight gain greater than saline controls: 0.004
[2]; 1 mg/kg twice daily on days -1 to 20
  average weight gain, % of starting weight during the study: 69.1%
[2]; all SCV-07 groups, significant differences
  P, One-Way ANOVA of weight gain AUC, SCV-07 treated groups vs control group: 0.012
